Here are results for two compounds from US6413909B1, “Herbicide composition for control of rye grass and vetch in preplant burndown” (priority 2001, dated 2002).

The subject of one data set is humans and other mammals. The conditions noted are these: result in words; cited from earlier work.
The next data set relates to vetch. The conditions noted are these: herbicide alone; cited from earlier work.
The test system of data set [1] is broadleaf weeds and grasses typically found in preplant corn fields. As to the kind of experiment: Field test of preplant burndown effectiveness (Example 1). The data set is classed as in vivo. The conditions noted are these: average of ratings 6 and 8 weeks after treatment. The protocol:
The composition of the present invention was tested for percent burndown effectiveness, compared to pretreatment, in fields containing broadleaf weeds and grasses typically found in preplant corn fields, including Texas panicum, fall panicum, signalgrass, goosegrass, barnyardgrass, yellow & green foxtail, pigweed, wild mustard, ryegrass, vetch, volunteer wheat, Florida pusley, smartweed, and cutleaf evening primrose.
The composition of the present invention consisted of about 57% ametryn, 25% atrazine, and 18% paraquat, by weight, and was applied at a rate of about 2 lbs. per acre. On separate fields, for comparison, ametryn alone, paraquat alone, atrazine alone, and ametryn plus gramoxone were applied. The composition of the present invention was formulated by suspending 2 lbs. of the composition of the present invention per 20 gallons of water. Herbicides were rated for burndown effectiveness 6 and 8 weeks after treatment. The two resulting values were averaged.

In the case of `CCNc1nc(NC(C)C)nc(SC)n1` [ametryn, 2-(ethylamino)-4-isopropylamino-6-methylthio-s-triazine], the toxicity to humans entry with humans and other mammals is given as “minimal human toxicity”. Further, the effective against vetch in the data set with vetch is listed as 100%. The “Percent Burndown” value in data set [1] (ametryn 1.14 lb active ingredient/acre, compared to pretreatment) is recorded as 30%.
Take `C[n+]1ccc(-c2cc[n+](C)cc2)cc1` [paraquat, 1,1-dimethyl-4,4-bipyridinium]: in the data set with humans and other mammals, the toxicity to humans entry was “high toxicity to humans and other mammals”. Besides, the results for the “Percent Burndown” value in data set [1] (paraquat 0.35 lb active ingredient/acre) and in data set [1] (paraquat 0.70 lb active ingredient/acre) were 30% and 50%, respectively.
